How the values were obtained:
ErbB2 = biological target: T1, ErbB2 (Homo sapiens, UniProt P04626); experiment: ErbB-2 substrate phosphorylation assay (HTRF); assay type: biochemical
T1 construct: made in house; host or cells: baculovirus expression system
Protocol: (§1) Compounds of the present invention were tested for EGFR and ErbB-2 protein tyrosine kinase inhibitory activity in substrate phosphorylation assays using enzymes purified from a baculovirus expression system. Reagent production was conducted essentially as described in Brignola, P. S., et al, (2002) J. Biol. Chem. 277(2):1576-1585.
(§2) The method measures the ability of the isolated enzyme to catalyse the transfer of the gamma-phosphate from ATP onto the tyrosine residue of a biotinylated synthetic peptide referenced “Peptide C” in Brignola, P. S., et al, (2002) J. Biol. Chem. 277(2):1576-1585. The extent of tyrosine phosphorylation was measured using an anti-phosphotyrosine antibody, and quantified by homogenous time-resolved fluorescence (HTRF).
(§3) Reactions were performed in black 384-well polystyrene flat-bottom plates in a final volume of 20 μL. Assays were performed by adding 10 μL of each of the following solutions, Substrate Mix and Enzyme Mix: The Substrate Mix contained 100 mM 3-[N-morpholino]propanesulfonic acid (MOPS) (pH 7.5), 2 mM MnCl2, 20 μM ATP, 0.01% Tween-20, 0.1 mg/mL (BSA), 0.8 uM peptide substrate, and 1 mM dithiothreitol. The Enzyme Mix contained 100 mM MOPS (pH7.5); 0.01% Tween-20; 0.1 mg/mL BSA, and either 0.8 nM EGFR, 10 nM ErbB2, or 1 nM ErbB4. The Enzyme Mix was added to the compound plates and the plates were incubated at 20° C. for 1 hr. The reactions were then started by adding the Substrate Mix.
(§4) After initiating the reaction with the method described above, the reactions were allowed to proceed for 90 minutes at 20° C. The reactions were then terminated by the addition of 20 μL 100 mM EDTA to each well. 40 μL/well of HTRF detection mix were added to the assay plates. The final concentrations of the detection reagents were: 100 mM HEPES (pH7.5), 0.1 mg/mL BSA, 15 nM streptavidin-labeled allophycocyanin (PerkinElmer), and 1 nM europium-labeled anti-phosphotyrosine antibody (Perkin Elmer). Assay plates were left unsealed and were counted in a Wallac Multilabel Counter 1420 (PerkinElmer).
(§5) Compounds under analysis were dissolved in dimethylsulfoxide (DMSO) to 1.0 mM and serially diluted 1 to 3 with DMSO through twelve dilutions. 1 μL of each concentration was transferred to the corresponding well of an assay plate. This creates a final compound concentration range from 0.00027 to 47.6 μM.
(§6) The data for dose responses were plotted as % Inhibition calculated with the data reduction formula 100*(1-(U1−C2)/(C1−C2)) versus concentration of compound where U1 is the unknown value, C1 is the average control value obtained for 4.76% DMSO, and C2 is the average control value obtained for 0.035 M EDTA. Data were fitted with a curve described by:
(§7) where Vmax is the upper asymptote, Y2 is the Y intercept, and K is the IC50. The results for each compound were recorded as pIC50s, calculated as follows: […]

SK-MEL-28 tumor cells = experiment: Cell growth inhibition assay (CellTiter-Glo), SK-MEL-28; assay type: cell-based, Human; settings: Homo sapiens, SK-MEL-28, 72 h; 3 days incubation
Protocol: (§8) Human breast tumor cells (BT474) were cultured in RPMI (Mediatech […]), containing 10% FBS (JRH Biosciences 12176) and 1% penicillin-streptomycin (Invitrogen 15140). Human head and neck tumor cells (HN5) were cultured in high glucose DMEM (Mediatech 50-013-PB) containing 10% FBS and 1% penicillin-streptomycin. Human colon tumor cells (Colo205) were cultured in RPMI (Mediatech 50-020-PB) containing 10% FBS and 1% penicillin-streptomycin. Human melanoma cancer cells (SK-MEL-28) were cultured in EMEM with nonessential amino acids (Mediatech 50-011-PB) containing 10% FBS, 1% sodium pyruvate (JT Baker 3354-04), and 1% penicillin-streptomycin. Human melanoma cancer cells (A375P F11s) were cultured in RPMI (Mediatech 50-020-PB) containing 10% FBS, 1% sodium pyruvate, and 1% penicillin-streptomycin. Human colon cancer cells (HT-29) were cultured in high glucose DMEM (Mediatech 50-013-PB) containing 10% FBS and 1% penicillin-streptomycin. Human melanoma cancer cells (SK-MEL-3) were cultured in McCoy's 5A (50-025-PB) containing 15% FBS, and 1% penicillin-streptomycin. All cell lines were maintained at 37° C. in a humidified 5% CO2, 95% air incubator. Cells were harvested using trypsin/EDTA (Invitrogen 25200), counted using a haemocytometer, and plated. For 96-well assays (using white full-area NUNC plates cat. #136102), cells were plated in 105 μL at the following densities (cells/well): HNS, 500; Colo 205, 500; SK-MEL-28, 500; A375P F11s, 500; HT-29, 500; SK-MEL-3, 500; and BT474, 3000. For 384-well assays (white full-area NUNC plates, cat. #781080), cells were plated in 48 μL at the following densities (cells/well): HNS, 500; Colo205, 500; SK-MEL-28, 500; A375P F11s, 500; HT-29, 500; SK-MEL-3, 500; and BT474, 2000.
(§9) The next day, compounds were diluted as follow: For 96-well assays, 13.5 μL of compound in DMSO were diluted using nine (9) serial 1:3 dilutions of 4.5 μL in 9 of DMSO. Medium (270 μL/well of RPMI with 10% FBS and 1% penicillin-streptomycin) was added to the plates. Aliquots (7 μL) were added to cells in the final assay giving a final DMSO concentration of 0.2%. For 384-well assays, 15 μL of compound in DMSO were diluted using nine (9) serial 1:3 dilutions of 5 μL in 10 μL of DMSO, followed by a further dilution of 5 μL of compound with 95 μL of medium, of which 2 μL were added to cells in the final assay giving a final DMSO concentration of 0.2%. Cells were incubated at 37° C., 5% CO2 for 3 days.
(§10) Total ATP was measured (as a surrogate estimate of cell number) using CellTiter-Glo® reagent (Promega G7571). Briefly, plates were removed from the incubator and allowed to equilibrate to room temperature for 30 minutes. CellTiter-Glo® (25 μL or 55 μL for 384-well or 96-well assays, respectively) reagent was added to each well and plates were shaken on an orbital plate shaker for 2 minutes. Plates were incubated without shaking for a further 30 minutes and read on an LJL Analyst GT reader in luminometer mode with an integration time of 0.5 seconds per well. Percent inhibition of cell growth was calculated relative to DMSO vehicle-treated control wells. Concentration of compound required to give 50% inhibition of vehicle-treated control cell growth (IC50) was interpolated using a 4-parameter fit for determining IC50 using the following equation: Y=A +((B−A)/(1+((C/X)̂D))) where […].

Colo205 tumor cells = experiment: Cell growth inhibition assay (CellTiter-Glo), Colo205; assay type: cell-based, Human; settings: Homo sapiens, COLO 205, 72 h; 3 days incubation
Protocol: as §8, §9, §10

EGFR = biological target: T2, EGFR (Homo sapiens, UniProt P00533); experiment: EGFR substrate phosphorylation assay (HTRF); assay type: biochemical
T2 construct: made in house; host or cells: baculovirus expression system
Protocol: as §1, §2, §3, §4, §5, §6, §7

B-Raf = B-Raf (Homo sapiens, UniProt P15056); experiment: B-Raf Accelerated MEK ATPase assay (BRAMA), Method A or B; assay type: biochemical; settings: Method B: final MEK 150 nM, single end point read
Protocol: Compounds of the present invention were tested for B-Raf protein serine kinase inhibitory activity in a B-Raf Accelerated MEK ATPase assay (BRAMA). The BRAMA assay is a high sensitivity assay which measures an intrinsic MEK-mediated ATP hydrolysis uncoupled from downstream ERK phosphorylation by coupling the formation of ADP to NADH oxidation through the enzymes pyruvate kinase and lactate dehydrogenase. When ADP production is initiated by addition of catalytic amounts of an activated Raf enzyme and non-phosphorylated MEK, one observes robust ADP production concomitant with Raf-mediated phosphorylation of MEK.
Method A: Specific details of the assay are disclosed in: C. Rominger, M. Schaber, E. May. Assay for B-Raf Activity Based on Intrinsic MEK ATPase Activity. Statutory Invention Registration 11/084,993 (March, 2005). Method B: The method is the same as method A, but includes the following changes: 1) the assay was performed with a final MEK concentration of 150 nM and 2) the assay was read as single end point instead of a kinetic read.

T2 sequence (P00533 25-1210): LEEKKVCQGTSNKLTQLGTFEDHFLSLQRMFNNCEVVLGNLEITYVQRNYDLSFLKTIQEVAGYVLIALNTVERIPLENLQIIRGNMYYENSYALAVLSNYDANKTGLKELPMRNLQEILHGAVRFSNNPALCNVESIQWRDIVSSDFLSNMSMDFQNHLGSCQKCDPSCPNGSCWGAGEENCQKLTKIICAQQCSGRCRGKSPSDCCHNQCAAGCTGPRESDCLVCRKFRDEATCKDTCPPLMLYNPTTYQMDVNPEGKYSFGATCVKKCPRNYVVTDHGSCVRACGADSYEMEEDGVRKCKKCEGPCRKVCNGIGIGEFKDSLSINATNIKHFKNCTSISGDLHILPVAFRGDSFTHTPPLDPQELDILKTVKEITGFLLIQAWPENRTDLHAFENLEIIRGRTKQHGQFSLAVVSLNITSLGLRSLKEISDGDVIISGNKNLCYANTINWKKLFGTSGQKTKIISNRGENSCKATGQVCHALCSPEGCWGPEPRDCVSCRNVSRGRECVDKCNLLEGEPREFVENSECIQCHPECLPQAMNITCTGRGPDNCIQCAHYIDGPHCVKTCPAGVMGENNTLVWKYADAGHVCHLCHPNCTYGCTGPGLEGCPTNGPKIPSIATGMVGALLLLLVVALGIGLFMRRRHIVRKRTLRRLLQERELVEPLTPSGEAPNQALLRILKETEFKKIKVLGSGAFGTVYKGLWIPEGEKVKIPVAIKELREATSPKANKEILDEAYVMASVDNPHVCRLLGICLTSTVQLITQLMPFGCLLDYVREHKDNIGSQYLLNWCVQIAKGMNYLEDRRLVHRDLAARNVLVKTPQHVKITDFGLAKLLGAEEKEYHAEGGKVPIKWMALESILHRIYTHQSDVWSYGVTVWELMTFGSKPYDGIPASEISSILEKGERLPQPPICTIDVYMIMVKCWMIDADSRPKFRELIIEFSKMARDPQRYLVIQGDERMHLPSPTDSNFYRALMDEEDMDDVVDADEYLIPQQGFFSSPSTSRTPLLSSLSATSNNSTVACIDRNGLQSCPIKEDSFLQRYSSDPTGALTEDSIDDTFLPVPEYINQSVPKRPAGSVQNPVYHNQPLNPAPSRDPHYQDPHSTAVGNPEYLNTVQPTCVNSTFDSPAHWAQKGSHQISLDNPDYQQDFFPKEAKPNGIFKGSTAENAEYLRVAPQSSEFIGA
T1 sequence (P04626 23-1255): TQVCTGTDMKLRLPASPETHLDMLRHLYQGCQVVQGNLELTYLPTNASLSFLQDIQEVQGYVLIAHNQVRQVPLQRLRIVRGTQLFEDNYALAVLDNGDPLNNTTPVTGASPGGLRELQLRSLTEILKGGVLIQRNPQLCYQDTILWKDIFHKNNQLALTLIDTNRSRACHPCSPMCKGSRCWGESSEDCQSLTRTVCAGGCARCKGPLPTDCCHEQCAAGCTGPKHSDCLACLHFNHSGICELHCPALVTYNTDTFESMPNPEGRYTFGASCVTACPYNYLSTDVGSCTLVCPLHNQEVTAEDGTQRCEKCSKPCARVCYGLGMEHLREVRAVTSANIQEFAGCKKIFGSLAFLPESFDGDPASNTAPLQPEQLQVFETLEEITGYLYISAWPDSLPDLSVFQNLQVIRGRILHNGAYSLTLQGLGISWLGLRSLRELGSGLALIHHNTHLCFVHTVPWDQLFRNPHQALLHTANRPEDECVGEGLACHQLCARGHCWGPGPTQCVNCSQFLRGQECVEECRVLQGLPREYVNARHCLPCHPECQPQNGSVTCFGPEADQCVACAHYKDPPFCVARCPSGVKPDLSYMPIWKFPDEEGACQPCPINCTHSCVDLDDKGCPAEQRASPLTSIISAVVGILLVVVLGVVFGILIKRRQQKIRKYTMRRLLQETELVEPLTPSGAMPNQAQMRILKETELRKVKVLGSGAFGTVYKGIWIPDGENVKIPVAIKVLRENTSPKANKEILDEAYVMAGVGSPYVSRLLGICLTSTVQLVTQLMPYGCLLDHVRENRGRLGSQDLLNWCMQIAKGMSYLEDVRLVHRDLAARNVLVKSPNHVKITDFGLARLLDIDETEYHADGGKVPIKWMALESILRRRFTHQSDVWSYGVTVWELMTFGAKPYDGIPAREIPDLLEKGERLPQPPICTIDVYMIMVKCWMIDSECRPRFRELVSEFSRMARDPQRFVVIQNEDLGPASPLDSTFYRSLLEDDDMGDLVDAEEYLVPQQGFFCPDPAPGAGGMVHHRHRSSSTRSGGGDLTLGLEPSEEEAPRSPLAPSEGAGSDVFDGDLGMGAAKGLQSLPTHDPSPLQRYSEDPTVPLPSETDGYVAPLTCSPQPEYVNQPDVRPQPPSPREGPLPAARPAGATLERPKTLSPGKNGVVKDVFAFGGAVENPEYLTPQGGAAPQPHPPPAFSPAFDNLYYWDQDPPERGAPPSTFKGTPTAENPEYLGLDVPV
Sequence of B-Raf (P15056 whole entry): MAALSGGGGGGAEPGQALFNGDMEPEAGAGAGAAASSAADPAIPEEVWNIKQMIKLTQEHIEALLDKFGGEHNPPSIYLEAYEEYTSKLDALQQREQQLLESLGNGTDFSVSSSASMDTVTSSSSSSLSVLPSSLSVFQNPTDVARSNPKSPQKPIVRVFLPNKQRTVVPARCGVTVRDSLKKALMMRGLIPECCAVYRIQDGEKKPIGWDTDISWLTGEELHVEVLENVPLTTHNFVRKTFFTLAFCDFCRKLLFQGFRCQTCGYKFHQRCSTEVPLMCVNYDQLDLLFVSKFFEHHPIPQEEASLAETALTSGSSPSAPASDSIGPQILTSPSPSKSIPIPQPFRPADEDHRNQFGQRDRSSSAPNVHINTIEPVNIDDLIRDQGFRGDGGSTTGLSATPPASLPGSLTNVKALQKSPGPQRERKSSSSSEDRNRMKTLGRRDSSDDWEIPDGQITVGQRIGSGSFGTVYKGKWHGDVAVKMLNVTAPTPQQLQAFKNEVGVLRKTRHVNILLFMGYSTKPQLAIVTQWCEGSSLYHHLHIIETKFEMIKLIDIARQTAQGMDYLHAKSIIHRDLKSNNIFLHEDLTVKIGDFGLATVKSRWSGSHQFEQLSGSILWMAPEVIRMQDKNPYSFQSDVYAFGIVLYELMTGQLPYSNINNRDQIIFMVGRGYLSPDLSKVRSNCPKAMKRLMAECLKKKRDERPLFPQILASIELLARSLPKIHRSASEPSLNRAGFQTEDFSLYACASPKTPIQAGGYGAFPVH

| SMILES | IC50 (ErbB2) | IC50 (SK-MEL-28 tumor cells) | IC50 (Colo205 tumor cells) | IC50 (EGFR) | IC50 (B-Raf) |
| --- | --- | --- | --- | --- | --- |
| CCc1nc(-c2cccc(CNS(=O)(=O)c3ccccc3)c2)c(-c2ccnc(Nc3ccc(N4CCN(CCS(C)(=O)=O)CC4)c(F)c3)n2)s1 [Example 35] | 0.1 to 1 µM | > 1 µM | > 1 µM | 0.1 to 1 µM | 0.1 to 1 µM |
| COc1ccc(Nc2nccc(-c3sc(C(C)C)nc3-c3cccc(NS(=O)(=O)Cc4ccccc4)c3)n2)cc1N1CCN(CCS(C)(=O)=O)CC1 [Example 37] | < 0.1 µM | > 1 µM | > 1 µM | < 0.1 µM | 0.1 to 1 µM |
| CC(C)c1nc(-c2cccc(NS(=O)(=O)c3cn(C)nc3C(F)(F)F)c2)c(-c2ccnc(Nc3ccc(N4CCOCC4)nc3)n2)s1 [Example 40] | > 1 µM | > 1 µM | > 1 µM | > 1 µM | 0.1 to 1 µM |
| Cc1[nH]c(=O)[nH]c(=O)c1S(=O)(=O)Nc1cccc(-c2nc(C(C)C)sc2-c2ccnc(Nc3ccc(N4CCOCC4)nc3)n2)c1 [Example 41] | > 1 µM | > 1 µM | > 1 µM | > 1 µM | 0.1 to 1 µM |
| COc1cc(N2CCN(CCS(C)(=O)=O)CC2)c(C)cc1Nc1nccc(-c2sc(C(C)C)nc2-c2cccc(NS(=O)(=O)c3cn(C)cn3)c2)n1 [Example 43] | 0.1 to 1 µM | > 1 µM | > 1 µM | > 1 µM | 0.1 to 1 µM |
| COc1cc(N2CCN(CCS(C)(=O)=O)CC2)c(C)cc1Nc1nccc(-c2sc(C(C)C)nc2-c2cccc(NS(=O)(=O)c3c(F)cccc3F)n2)n1 [Example 45] | < 0.1 µM | 0.1 to 1 µM | 0.1 to 1 µM | < 0.1 µM | 0.1 to 1 µM |
| COc1cc(N2CCN(CCS(C)(=O)=O)CC2)c(C)cc1Nc1nccc(-c2sc(C(C)C)nc2-c2cncc(NS(=O)(=O)c3c(F)cccc3F)c2)n1 [Example 48] | < 0.1 µM | 0.1 to 1 µM | < 0.1 µM | > 1 µM | 0.1 to 1 µM |
| COc1cc(N2CCN(CCS(C)(=O)=O)CC2)c(C)cc1Nc1nccc(-c2sc(C(C)C)nc2-c2cccc(NS(=O)(=O)c3cccs3)c2)n1 [Example 50] | < 0.1 µM | 0.1 to 1 µM | < 0.1 µM | < 0.1 µM | < 0.1 µM |
| COc1cc(N2CCN(CCS(C)(=O)=O)CC2)c(C)cc1Nc1nccc(-c2sc(C(C)C)nc2-c2cccc(NS(=O)(=O)c3cccnc3)c2)n1 [Example 54] | < 0.1 µM | < 0.1 µM | < 0.1 µM | 0.1 to 1 µM | < 0.1 µM |
| COc1cc(N2CCN(CCS(C)(=O)=O)CC2)c(C)cc1Nc1nccc(-c2sc(C(C)C)nc2-c2cccc(NS(=O)(=O)c3ccco3)c2)n1 [Example 55] | < 0.1 µM | 0.1 to 1 µM | < 0.1 µM | < 0.1 µM | < 0.1 µM |
| O=S(=O)(Nc1cc(-c2nc(N3CCCC3)oc2-c2ccnc(Nc3ccc(N4CCOCC4)c(F)c3)n2)ccc1F)c1ccccc1F [Example 59] | > 1 µM | 0.1 to 1 µM | 0.1 to 1 µM | > 1 µM | < 0.1 µM |
| CS(=O)(=O)N1CCN(c2ccc(Nc3nccc(-c4oc(N5CCCC5)nc4-c4ccc(F)c(NS(=O)(=O)c5ccccc5F)c4)n3)cn2)CC1 [Example 60] | > 1 µM | > 1 µM | 0.1 to 1 µM | > 1 µM | < 0.1 µM |
| CC(C)c1nc(-c2ccc(F)c(NS(=O)(=O)c3c(F)cccc3F)c2)c(-c2ccnc(Nc3ccc(N4CCN(CCS(C)(=O)=O)CC4)c(F)c3)n2)o1 [Example 61] | 0.1 to 1 µM | 0.1 to 1 µM | 0.1 to 1 µM | > 1 µM | < 0.1 µM |
| COc1cc(N2CCN(CCS(C)(=O)=O)CC2)c(C)cc1Nc1nccc(-c2sc(N)nc2-c2cccc(NS(=O)(=O)c3c(F)cccc3F)c2)n1 [Example 63] | < 0.1 µM | > 1 µM | 0.1 to 1 µM | 0.1 to 1 µM | 0.1 to 1 µM |
| COc1cc(N2CCC(CCS(C)(=O)=O)CC2)c(C)cc1Nc1nccc(-c2sc(N3CCCC3)nc2-c2cccc(NS(=O)(=O)c3c(F)cccc3F)c2)n1 [Example 137] | > 1 µM | 0.1 to 1 µM | < 0.1 µM |  | 0.1 to 1 µM |
| COc1ccc(S(C)(=O)=O)cc1Nc1nccc(-c2sc(N3CCOCC3)nc2-c2cccc(NS(=O)(=O)c3c(F)cccc3F)c2OC)n1 [Example 168] | > 1 µM | > 1 µM |  | > 1 µM | < 0.1 µM |
